Converted amounts (≈) assume the structure as drawn. Like-named read-outs stand apart in the source and are kept apart here.
How the values were obtained:
human (hACC2) = human (hACC2) (Homo sapiens, UniProt O00763); experiment: In vitro ACC inhibition assay (ADP-Glo), hACC2; assay type: biochemical; details: 5 nM ACC2, 20 μM ATP, 20 μM acetyl-CoA
Description: The detailed procedure is as follows. […] 10 μL ADP glo reagent was added. […] 20 μL kinase detection reagent was added.

C. albicans = experiment: Antifungal Activity Assay (broth microtiter MIC), C. albicans; assay type: cell-based, Candida albicans; details: Candida albicans, ATCC90028, 48 h, ATCC 90028, 3 replicates, MIC recorded at 48 h, read-out: MIC, C. albicans ATCC 90028
In short: (§1)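 Endpoint: lowest concentration visibly inhibiting growth relative to control after 48 h. Inoculum of 2.5×10^3 CFU/mL final in RPMI 1640+MOPS, prepared from overnight 35° C agar cultures; test compounds diluted in water to 128 μg/mL before plating.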

C. parapsilosis = experiment: Antifungal Activity Assay (broth microtiter MIC), C. parapsilosis; assay type: cell-based, Candida parapsilosis; details: Lodderomyces parapsilosis, ATCC22019, 48 h, ATCC 22019, 3 replicates, MIC recorded at 48 h, read-out: MIC, C. parapsilosis ATCC 22019
In short: as §1

Botrtyis cinerea (Bc) = experiment: Growth inhibition assay of fungal pathogens, Bc; assay type: cell-based; details: 48 h, Botrtyis cinerea, read-out: Concentration at 90% Inhibition Bc
In short: (§2)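 Read-out: OD600 plus visual rating at 24 and 48 h, blank (media + 2% DMSO) subtracted. Percent inhibition was derived at 48 h versus the 2% DMSO control. Spores were grown in 17% V8 broth with compound at 50/10/2 or 2/0.4/0.08 ppm final.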

Diplodia maydis (Dm) = experiment: Growth inhibition assay of fungal pathogens, Dm; assay type: cell-based; details: Stenocarpella maydis, 48 h, Diplodia maydis, read-out: Concentration at 90% Inhibition Dm
In short: as §2

[1] = tested on: Fusarium moniliforme (Fm); experiment: Growth inhibition assay of fungal pathogens, Fm; assay type: cell-based; details: Fusarium verticillioides, 48 h, Fusarium moniliforme, read-out: Concentration at 90% Inhibition Fm
In short: as §2

[2] = tested on: Fusarium virguliforme (Fv); experiment: Growth inhibition assay of fungal pathogens, Fv; assay type: cell-based; details: 48 h, read-out: Concentration at 90% Inhibition Fv
In short: as §2

Rhizoctonia solani (Rs) = experiment: Growth inhibition assay of fungal pathogens, Rs; assay type: cell-based; details: 48 h, mycelial plugs, read-out: Concentration at 90% Inhibition Rs
Septoria tritici (St) = experiment: Growth inhibition assay of fungal pathogens, St; assay type: cell-based; details: Zymoseptoria tritici, 48 h, Septoria tritici, read-out: Concentration at 90% Inhibition St
In short: as §2

fungal (fACC2) = fungal (fACC2) (UniProt Q00955); details: read-out: fACC2 (in vitro ACC2 Inhibition Assay, IC50), ADP-Glo, 5 nM ACC2, 20 μM ATP, 20 μM acetyl-CoA
Chain of fungal (fACC2) (Q00955 whole entry): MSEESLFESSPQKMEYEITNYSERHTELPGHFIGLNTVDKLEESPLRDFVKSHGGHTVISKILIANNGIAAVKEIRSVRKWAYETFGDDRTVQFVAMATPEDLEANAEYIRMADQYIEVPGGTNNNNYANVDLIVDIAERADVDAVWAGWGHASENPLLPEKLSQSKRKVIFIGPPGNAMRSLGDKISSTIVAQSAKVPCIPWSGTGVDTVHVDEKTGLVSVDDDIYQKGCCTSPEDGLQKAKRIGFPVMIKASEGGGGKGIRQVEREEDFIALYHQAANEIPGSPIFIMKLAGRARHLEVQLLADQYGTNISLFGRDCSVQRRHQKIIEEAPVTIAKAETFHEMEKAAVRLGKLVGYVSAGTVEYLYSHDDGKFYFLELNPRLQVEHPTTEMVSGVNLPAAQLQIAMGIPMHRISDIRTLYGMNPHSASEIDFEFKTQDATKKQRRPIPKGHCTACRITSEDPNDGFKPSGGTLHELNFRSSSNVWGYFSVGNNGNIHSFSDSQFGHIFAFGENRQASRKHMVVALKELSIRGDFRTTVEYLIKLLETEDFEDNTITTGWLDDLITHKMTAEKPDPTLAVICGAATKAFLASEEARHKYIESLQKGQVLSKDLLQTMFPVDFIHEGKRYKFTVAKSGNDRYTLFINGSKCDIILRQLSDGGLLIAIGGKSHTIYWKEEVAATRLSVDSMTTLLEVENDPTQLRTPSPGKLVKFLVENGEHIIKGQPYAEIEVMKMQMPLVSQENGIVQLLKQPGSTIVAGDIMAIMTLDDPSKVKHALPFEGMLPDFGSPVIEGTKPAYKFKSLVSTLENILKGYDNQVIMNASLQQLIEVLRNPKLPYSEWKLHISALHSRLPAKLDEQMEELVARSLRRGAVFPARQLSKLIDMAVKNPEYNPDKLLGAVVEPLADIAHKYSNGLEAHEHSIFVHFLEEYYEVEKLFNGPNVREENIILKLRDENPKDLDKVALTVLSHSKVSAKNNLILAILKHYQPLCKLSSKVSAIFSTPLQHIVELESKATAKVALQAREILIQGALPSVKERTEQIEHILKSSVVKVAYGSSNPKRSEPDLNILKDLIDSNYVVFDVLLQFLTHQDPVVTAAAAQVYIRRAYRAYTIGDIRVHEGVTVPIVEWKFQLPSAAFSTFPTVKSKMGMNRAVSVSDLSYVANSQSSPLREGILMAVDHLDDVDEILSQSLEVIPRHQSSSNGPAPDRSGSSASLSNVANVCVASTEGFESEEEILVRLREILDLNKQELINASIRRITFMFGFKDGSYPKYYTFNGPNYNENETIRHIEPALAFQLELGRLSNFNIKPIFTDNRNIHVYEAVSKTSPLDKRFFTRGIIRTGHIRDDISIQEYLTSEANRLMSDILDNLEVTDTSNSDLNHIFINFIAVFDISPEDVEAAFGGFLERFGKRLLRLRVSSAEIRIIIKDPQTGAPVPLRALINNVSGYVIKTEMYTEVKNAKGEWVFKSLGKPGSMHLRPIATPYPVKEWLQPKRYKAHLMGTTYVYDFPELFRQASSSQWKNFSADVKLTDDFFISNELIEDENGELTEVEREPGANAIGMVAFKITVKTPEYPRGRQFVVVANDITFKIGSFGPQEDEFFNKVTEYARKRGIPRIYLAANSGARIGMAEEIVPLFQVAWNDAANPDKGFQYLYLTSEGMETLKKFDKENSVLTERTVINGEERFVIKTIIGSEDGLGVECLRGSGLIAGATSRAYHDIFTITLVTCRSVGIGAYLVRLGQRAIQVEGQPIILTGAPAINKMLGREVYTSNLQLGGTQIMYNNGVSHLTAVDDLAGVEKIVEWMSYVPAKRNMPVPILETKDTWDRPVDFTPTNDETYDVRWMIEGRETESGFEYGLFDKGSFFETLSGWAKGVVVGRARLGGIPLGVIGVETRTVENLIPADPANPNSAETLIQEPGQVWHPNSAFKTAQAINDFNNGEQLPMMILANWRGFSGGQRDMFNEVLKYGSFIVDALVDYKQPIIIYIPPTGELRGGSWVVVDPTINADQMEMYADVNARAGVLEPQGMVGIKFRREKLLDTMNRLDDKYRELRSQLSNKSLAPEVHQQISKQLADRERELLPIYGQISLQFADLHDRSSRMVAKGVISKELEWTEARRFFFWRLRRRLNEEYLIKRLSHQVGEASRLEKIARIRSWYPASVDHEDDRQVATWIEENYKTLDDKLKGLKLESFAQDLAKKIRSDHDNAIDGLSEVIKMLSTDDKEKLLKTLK

[3] = growth inhibition at 48 hours vs 2% DMSO control
[4] = growth inhibition vs 2% DMSO control at 48 hours

Chain of human (hACC2) (O00763 whole entry): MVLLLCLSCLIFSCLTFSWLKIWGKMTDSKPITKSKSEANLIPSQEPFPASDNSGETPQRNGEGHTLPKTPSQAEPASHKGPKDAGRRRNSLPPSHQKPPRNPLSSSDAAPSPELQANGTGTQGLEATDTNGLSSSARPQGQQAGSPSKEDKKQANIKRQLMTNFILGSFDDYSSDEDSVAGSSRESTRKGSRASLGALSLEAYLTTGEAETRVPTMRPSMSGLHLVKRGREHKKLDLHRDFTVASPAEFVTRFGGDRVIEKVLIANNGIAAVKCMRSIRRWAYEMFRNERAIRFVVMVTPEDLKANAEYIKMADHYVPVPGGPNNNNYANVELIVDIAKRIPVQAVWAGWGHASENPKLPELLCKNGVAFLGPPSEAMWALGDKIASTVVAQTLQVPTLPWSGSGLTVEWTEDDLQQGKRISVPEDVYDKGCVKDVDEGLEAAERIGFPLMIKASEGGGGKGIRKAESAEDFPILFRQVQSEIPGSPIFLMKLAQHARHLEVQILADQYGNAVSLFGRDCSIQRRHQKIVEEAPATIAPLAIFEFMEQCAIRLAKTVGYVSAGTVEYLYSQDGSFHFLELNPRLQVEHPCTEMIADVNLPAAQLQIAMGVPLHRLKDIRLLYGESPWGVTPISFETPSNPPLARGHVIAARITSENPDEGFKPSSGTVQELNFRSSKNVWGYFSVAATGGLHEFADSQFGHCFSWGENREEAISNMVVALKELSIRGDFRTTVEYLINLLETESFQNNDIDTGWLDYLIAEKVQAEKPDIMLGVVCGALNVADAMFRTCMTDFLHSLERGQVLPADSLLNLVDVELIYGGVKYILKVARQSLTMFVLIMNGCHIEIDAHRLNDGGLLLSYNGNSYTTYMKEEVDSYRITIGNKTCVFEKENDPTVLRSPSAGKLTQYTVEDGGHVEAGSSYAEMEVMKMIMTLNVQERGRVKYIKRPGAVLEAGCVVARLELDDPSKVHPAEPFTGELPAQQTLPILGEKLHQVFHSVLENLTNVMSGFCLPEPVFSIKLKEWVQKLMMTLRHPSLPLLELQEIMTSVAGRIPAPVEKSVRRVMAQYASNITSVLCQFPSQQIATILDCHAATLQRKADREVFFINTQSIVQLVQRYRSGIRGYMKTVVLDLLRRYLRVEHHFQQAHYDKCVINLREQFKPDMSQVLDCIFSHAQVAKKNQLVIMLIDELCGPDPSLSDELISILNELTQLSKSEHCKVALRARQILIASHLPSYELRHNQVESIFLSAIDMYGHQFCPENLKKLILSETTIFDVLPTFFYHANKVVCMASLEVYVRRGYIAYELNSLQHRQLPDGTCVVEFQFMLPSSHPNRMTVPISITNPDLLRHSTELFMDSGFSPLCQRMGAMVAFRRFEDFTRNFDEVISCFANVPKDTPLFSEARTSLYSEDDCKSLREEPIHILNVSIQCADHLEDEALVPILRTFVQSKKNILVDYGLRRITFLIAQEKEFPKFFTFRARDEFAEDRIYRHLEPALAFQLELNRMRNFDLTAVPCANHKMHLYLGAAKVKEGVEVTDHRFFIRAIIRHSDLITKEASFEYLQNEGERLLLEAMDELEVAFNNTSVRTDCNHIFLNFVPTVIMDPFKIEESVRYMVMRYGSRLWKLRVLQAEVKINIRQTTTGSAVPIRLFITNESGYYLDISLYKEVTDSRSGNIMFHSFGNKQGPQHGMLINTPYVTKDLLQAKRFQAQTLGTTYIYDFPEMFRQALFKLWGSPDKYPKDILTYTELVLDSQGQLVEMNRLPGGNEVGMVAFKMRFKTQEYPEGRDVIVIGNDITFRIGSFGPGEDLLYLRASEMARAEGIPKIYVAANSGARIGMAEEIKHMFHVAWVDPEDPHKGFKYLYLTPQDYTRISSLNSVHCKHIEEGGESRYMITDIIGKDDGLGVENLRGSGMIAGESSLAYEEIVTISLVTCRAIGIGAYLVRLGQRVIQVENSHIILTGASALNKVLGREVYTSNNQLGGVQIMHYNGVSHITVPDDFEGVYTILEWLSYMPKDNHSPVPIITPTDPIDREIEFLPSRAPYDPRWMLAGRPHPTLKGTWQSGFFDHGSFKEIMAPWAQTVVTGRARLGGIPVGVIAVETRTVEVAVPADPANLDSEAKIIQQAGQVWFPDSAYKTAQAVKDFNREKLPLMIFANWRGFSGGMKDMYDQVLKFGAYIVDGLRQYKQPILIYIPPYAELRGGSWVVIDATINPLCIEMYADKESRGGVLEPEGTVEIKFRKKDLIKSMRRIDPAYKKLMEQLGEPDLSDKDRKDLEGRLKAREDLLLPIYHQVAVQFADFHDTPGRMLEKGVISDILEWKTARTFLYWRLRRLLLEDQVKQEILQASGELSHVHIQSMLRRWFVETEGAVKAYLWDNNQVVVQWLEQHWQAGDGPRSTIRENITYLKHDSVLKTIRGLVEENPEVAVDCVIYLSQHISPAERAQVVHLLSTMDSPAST

Compound: COc1ccc(F)cc1[C@H](Cn1c(=O)n(C(C)(C)C(=O)NC(C)C)c(=O)c2c(C)c(-n3nccn3)sc21)OCCC#N [Compound I-91, (R)-2-(1-(2-(2-cyanoethoxy)-2-(5-fluoro-2-methoxy-phenyl)ethyl)-5-methyl-2,4-dioxo-6-(2H-1,2,3-triazol-2-yl)-1,4-dihydro-thieno[2,3-d]pyrimidin-3(2H)-yl)-N-isopropyl-2-methylpropanamide]
- IC50 (human (hACC2); Table 2a): 10 to 40 nM
- IC50 (human (hACC2); Table 2b, additional results): 10 to 40 nM
- MIC (C. albicans; Table 3a): 0.25 to 1 µg/mL (≈ 0.418 to 1.67 µM)
- MIC (C. albicans; Table 3b (additional results)): 1.01 to 2 µg/mL (≈ 1.69 to 3.35 µM)
- MIC (C. parapsilosis; Table 3a): 0.06 to 0.24 µg/mL (≈ 0.1 to 0.402 µM)
- MIC (C. parapsilosis; Table 3b (additional results)): 0.25 to 1 µg/mL (≈ 0.418 to 1.67 µM)
- IC90 (Botrtyis cinerea (Bc); [3]): 0.4 µg/mL (≈ 0.669 µM)
- IC90 (Botrtyis cinerea (Bc); [4]): 0.4 µg/mL (≈ 0.669 µM)
- IC90 (Diplodia maydis (Dm); [3]): 0.08 µg/mL (≈ 0.134 µM)
- IC90 (Diplodia maydis (Dm); [4]): 0.08 µg/mL (≈ 0.134 µM)
- IC90 [1, 3]: 0.08 µg/mL (≈ 0.134 µM)
- IC90 [1, 4]: 0.08 µg/mL (≈ 0.134 µM)
- IC90 [2, 3]: 0.08 µg/mL (≈ 0.134 µM)
- IC90 [2, 4]: 0.08 µg/mL (≈ 0.134 µM)
- IC90 (Rhizoctonia solani (Rs); [3]): 0.08 µg/mL (≈ 0.134 µM)
- IC90 (Rhizoctonia solani (Rs); [4]): 0.08 µg/mL (≈ 0.134 µM)
- IC90 (Septoria tritici (St); [3]): > 50 µg/mL
- IC90 (Septoria tritici (St); [4]): > 50 µg/mL
- IC50 (fungal (fACC2); Table 2a): 1 to 5 nM
- IC50 (fungal (fACC2); Table 2b, additional results): 1 to 5 nM

— US10800791B2, “Triazole ACC inhibitors and uses thereof” (Gilead Apollo, LLC, priority 2015, dated 2020)
